Results published in patent publication US10815457B2, “Active CXCR4+ immune cells and methods for their production and use” (UNIVERSITY OF PITTSBURGH—OF THE COMMONWEALTH SYSTEM OF …, priority 2014, dated 2020).
“Also recorded” adds a separate entry of the source.

Assays:
[1] = test system: CXCL12-responsive GZMB+ CD8+ T cells; test: Chemotaxis of GZMB+ CD8+ T cells to recombinant CXCL12 (transwell); assay type: cell-based, human; settings: 50 ng/ml CXCL12; cells primed with CD3/CD28 + IL-12 or type-1 polarized DCs, then DMOG
[2] = test system: CXCR4+/GZMB+ CD8+ T cells; test: FACS staining for CXCR4 and GZMB in ex vivo induced CTLs exposed to a hypoxia mimic; assay type: cell-based, human
CXCR4 on NK cells = test: CXCR4 expression on IL-12+IL-15-activated NK cells, by flow cytometry; assay type: cell-based; settings: overnight with IL-12p70 (20 ng/ml) and IL-15 (20 ng/ml), 200 μM CoCl2
Procedure: Negatively Isolated (EasySep) NK cells were cultured overnight with NK cell activators, IL-12p70 (20 ng/ml) and IL-15 (20 ng/ml), in absence or presence of 200 μM CoCl2 (Hypoxia mimic; HIF1α activator). Absolute numbers (A) and percentage (B) of CXCR4 NK cells are calculated by flow cytometry and are depicted in the figure.

| Compound | responsiveness to CXCL12 (migration of GZMB+ CD8+ T cells) [1] | CXCR4 expression (CXCR4+/GZMB+ double positive CD8+ T cells) ([2]; CD3-CD28 beads +/- IL-12 (5 ng/ml) 6 days or type-1 polarized DCs, then 3 days with 200 μM DMOG) | intracellular GZMB expression in arising effector cells ([2]; CD8+ T cells primed in type-1-polarizing conditions, DMOG) | CXCR4 expression on NK cells (absolute numbers and percentage) (CXCR4 on NK cells) |
| --- | --- | --- | --- | --- |
| COC(=O)CNC(=O)C(=O)OC [DMOG, dimethyloxalylglycine] | highest migration of GZMB^+ CTL; also recorded: increases CXCR4 expression and responsiveness to CXCL12 | promote high levels of CXCR4; also recorded: increases CXCR4 expression | without affecting the intracellular GZMB expression |  |
| [Cl][Co][Cl] [CoCl2, cobalt chloride] |  |  |  | increases CXCR4 expression |
